Measured values: patent US8247211B2, “Glycopeptide antibiotics” (American Cyanamid Company, priority 2001, dated 2012)
Values after ≈ are worked out from the molar mass of the structure shown.

Legend:
[1] = format: in vivo; conditions: mice, 20 mg/kg intravenously daily for 9 days, serum on day 10
Description: 20-day-old CD-1 mice were divided into a vehicle control group (5 mice) and a treatment group (5 mice). Samples of glycopeptide antibiotics were administered at 20 mg/kg intravenously daily for 9 days. Animals were necropsied on day 10 Sera were analyzed for BUN (blood urea nitrogen), creatinine, AST (aspartic aminotransferase), and ALT (alanine aminotransferase) by routine, standard, automated methods using an Hitachi 747 chemistry analyzer.

[2] = tested on: Staphylococcus aureus-SMITH (GC 4543); experiment: Acute lethal infection in mice (ED50); format: in vivo; conditions: female CD-1 mice, intraperitoneal challenge, intravenous dose 30 min. after infection, 7 day survival ratios
Procedure, shortened: (§1)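 Bacteria suspended in Trypticase Soy Broth or hog gastric mucin are injected intraperitoneally into female CD-1 mice at a dose killing untreated animals within 24-48 hr. Thirty minutes later, test agent is administered intravenously. Survival at day 7 is scored.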

[3] = tested on: Enterococcus faecalis (GC 6189), vancomycin resistant strain; experiment: Acute lethal infection in mice (ED50); format: in vivo; conditions: female CD-1 mice, intraperitoneal challenge, intravenous dose 30 min. after infection, 7 day survival ratios
Procedure, shortened: as §1

[4] = tested on: Streptococcus pneumoniae (GC 1894), penicillin resistant strain; experiment: Acute lethal infection in mice (ED50); format: in vivo; conditions: female CD-1 mice, intraperitoneal challenge, intravenous dose 30 min. after infection, 7 day survival ratios
Procedure, shortened: as §1

[5] = Anatomic pathology (heart and kidney histopathology) in mice; format: in vivo, CD-1 mice; conditions: 20 mg/kg intravenously daily for 9 days, microscopic histopathology on day 10
Procedure, shortened: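 Histopathology on H&E-stained, paraffin-embedded sections, subjectively scored (slight, mild, moderate, marked, severe) relative to untreated controls. Dosing: glycopeptide antibiotics 20 mg/kg intravenously once daily ×9 days in 20-day-old CD-1 mice, n=5 per group including vehicle.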

[6] = tested on: Enterococcus sp.; experiment: In vitro antibacterial evaluation: minimum inhibitory concentration (MIC), broth dilution method; format: cell-based; conditions: broth dilution, 5×10^5 CFU/mL, 18 hours at 35° C.
Procedure, shortened: (§2)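 Using Muller-Hinton II […] and an inoculum of 5×10^5 CFU/mL, antibiotic dilutions from 64 down to 0.06 μg/mL were tested following NCCLS M7-A2. The MIC is the lowest concentration inhibiting growth, including in methicillin-, penicillin- or vancomycin-resistant clinical isolates.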

[7] = tested on: Staphylococcus sp.; experiment: as above; format: cell-based; conditions: for MIC Staphylococcus aureus (ATCC 29213): strain ATCC 29213; for MIC Staphylococcus aureus (GC 1131): strain GC 1131; for MIC Staphylococcus aureus (GC 4541): strain GC 4541; for MIC Staphylococcus aureus (GC 4542): strain GC 4542; for MIC Staphylococcus aureus-SMITH (GC 4543): strain GC 4543; for MIC Staphylococcus aureus (GC 4544): strain GC 4544; for MIC Staphylococcus aureus (GC 4545): strain GC 4545; for MIC Staphylococcus haemolyticus (GC 4546): strain GC 4546; for MIC Coagulase Negative Staphylococcus (GC 4547): strain GC 4547; for MIC Coagulase Negative Staphylococcus (GC 4548): strain GC 4548; for MIC Coagulase Negative Staphylococcus (GC 4549): strain GC 4549; for MIC Coagulase Negative Staphylococcus (GC 4551): strain GC 4551; for MIC Coagulase Negative Staphylococcus (GC 6257): strain GC 6257; for MIC Coagulase Negative Staphylococcus (ID-3941): strain ID-3941
Procedure, shortened: as §2

[8] = tested on: Escherichia coli; experiment: as above; format: cell-based; conditions: 5×10^5 CFU/mL, 18 hours at 35° C.
Procedure, shortened: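 Test strains, among them recent clinical isolates carrying methicillin, penicillin and/or vancomycin resistance, were inoculated at 5×10^5 CFU/mL. A broth dilution series spanning 64-0.06 μg/mL in Muller-Hinton II […] (NCCLS M7-A2) defined the MIC as the lowest growth-inhibiting concentration.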

[9] = tested on: Streptococcus sp.; experiment: as above; format: cell-based; conditions: broth dilution, 5×10^5 CFU/mL, 18 hours at 35° C.
Procedure, shortened: as §2

[10] = broth dilution, 18 hours at 35° C.

## CC(c1ccccc1)C1NC(=O)CNC(=O)C(CO)NC(=O)C(C(O)C2CNC(=N)N2C2OC(CO)C(O)C(O)C2O)NC(=O)C(C(O)C2CNC(=N)N2)NC(=O)C(Cc2ccc(OC3OC(CO)C(OC4OC5COC(c6ccccc6)OC5C(O)C4O)C(O)C3O)cc2)NC1=O (stereo not drawn) [Example 104, Cyclo[glycyl-β-methylphenylalanyl-O-[4-O-(4,6-O-benzylidenehexopyranosyl)hexopyranosyl]-tyrosyl-3-(2-iminoimidazolidin-4-yl)seryl-3-(3-hexopyranosyl-2-iminoimidazolidin-4-yl)-serylseryl]]
[1]
  Clinical Chemistry (Day 10) % of Control, AST: +87%
  Clinical Chemistry (Day 10) % of Control, Creatinine: +65%
[2]
  median effective dose (ED50), Staphylococcus aureus-SMITH (GC 4543): 0.19 mg/kg
[3]
  median effective dose (ED50), Enterococcus faecalis (GC 6189): 0.39-0.63
[4]
  median effective dose (ED50), Streptococcus pneumoniae (GC 1894): 0.22 mg/kg
[5]
  Anatomical Pathology (Day 10), Heart: +++
  Anatomical Pathology (Day 10), Kidney: +++
[6]
  MIC Enterococccus avium (GC 4558): 2 to 4 µg/mL
  MIC Enterococccus faecalis (ATCC 29212): 2 to 4 µg/mL
  MIC Enterococccus faecalis (GC 2691): 4 µg/mL (≈ 2.89 µM)
  MIC Enterococccus faecalis (GC 3059): 4 µg/mL (≈ 2.89 µM)
  MIC Enterococccus faecalis (GC 4552): 4 µg/mL (≈ 2.89 µM)
  MIC Enterococccus faecalis (GC 4553): 4 µg/mL (≈ 2.89 µM)
  MIC Enterococccus faecalis (GC 4554): 4 µg/mL (≈ 2.89 µM)
  MIC Enterococccus faecalis (GC 6189): 2 µg/mL (≈ 1.45 µM)
  MIC Enterococccus faecium (GC 2243): 2 µg/mL (≈ 1.45 µM)
  MIC Enterococccus faecium (GC 4556): 2 to 4 µg/mL
  MIC Enterococccus faecium (GC 4557): 2 µg/mL (≈ 1.45 µM)
  MIC Enterococcus faecalis (GC 2242): 2 µg/mL (≈ 1.45 µM)
[7]
  MIC Staphylococcus aureus (ATCC 29213): 1 µg/mL (≈ 0.723 µM)
  MIC Staphylococcus aureus (GC 1131): 2 µg/mL (≈ 1.45 µM)
  MIC Staphylococcus aureus (GC 4541): 1 µg/mL (≈ 0.723 µM)
  MIC Staphylococcus aureus (GC 4542): 0.5 µg/mL (≈ 0.361 µM)
  MIC Staphylococcus aureus (GC 4544): 1 µg/mL (≈ 0.723 µM)
  MIC Staphylococcus aureus (GC 4545): 0.5 to 1 µg/mL
  MIC Staphylococcus haemolyticus (GC 4546): 0.5 µg/mL (≈ 0.361 µM)
  MIC Coagulase Negative Staphylococcus (GC 4547): 1 µg/mL (≈ 0.723 µM)
  MIC Coagulase Negative Staphylococcus (GC 4548): 0.5 to 1 µg/mL
  MIC Coagulase Negative Staphylococcus (GC 4549): 0.5 µg/mL (≈ 0.361 µM)
  MIC Coagulase Negative Staphylococcus (GC 4551): 1 µg/mL (≈ 0.723 µM)
  MIC Coagulase Negative Staphylococcus (GC 6257): 0.5 µg/mL (≈ 0.361 µM)
[7]; strain GC 3051
  MIC Staphylococcus aureus (GC 3051): 1 µg/mL (≈ 0.723 µM)
[7]; strain GC 3053
  MIC Staphylococcus aureus (GC 3053): 1 µg/mL (≈ 0.723 µM)
[7]; 18 hours at 35° C.
  MIC Staphylococcus aureus-SMITH (GC 4543): 0.5 to 1 µg/mL
[7]; [10]
  MIC Staphylococcus aureus-SMITH (GC 4543): 0.5 to 1 µg/mL
  MIC Staphylococcus haemolyticus (GC 4546): 0.5 µg/mL (≈ 0.361 µM)
  MIC Coagulase Negative Staphylococcus (GC 4547): 1 µg/mL (≈ 0.723 µM)
  MIC Coagulase Negative Staphylococcus (GC 4548): 0.5 to 1 µg/mL
  MIC Coagulase Negative Staphylococcus (GC 4549): 0.5 µg/mL (≈ 0.361 µM)
  MIC Coagulase Negative Staphylococcus (GC 4551): 1 µg/mL (≈ 0.723 µM)
  MIC Coagulase Negative Staphylococcus (GC 6257): 0.5 µg/mL (≈ 0.361 µM)
[8]
  MIC Escherichia coli (GC 4560): 0.5 to 1 µg/mL
[9]
  MIC Streptococcus pneumoniae (GC 1894): <0.12 µg/mL
  MIC Streptococcus pneumoniae (GC 4565): <0.12 µg/mL
  MIC Streptococcus pneumonine (ATCC 6301): <0.12 µg/mL
  MIC Streptococcus pyogenes (GC 4563): <0.12 µg/mL

## CC(c1ccccc1)C1NC(=O)CNC(=O)C(CO)NC(=O)C(C(O)C2CNC(=N)N2C2OC(CO)C(O)C(O)C2O)NC(=O)C(C(O)C2CNC(=N)N2)NC(=O)C(Cc2ccc(OC3OC(CO)C(OC4OC5COC(C6CCCCC6)OC5C(O)C4O)C(O)C3O)cc2)NC1=O (stereo not drawn) [Example 112]
[2]
  median effective dose (ED50), Staphylococcus aureus-SMITH (GC 4543): 0.07-0.08
[3]
  median effective dose (ED50), Enterococcus faecalis (GC 6189): 0.19-0.28
[4]
  median effective dose (ED50), Streptococcus pneumoniae (GC 1894): 0.02 mg/kg
[6]
  MIC Enterococccus avium (GC 4558): 2 µg/mL (≈ 1.44 µM)
  MIC Enterococccus faecalis (ATCC 29212): 2 µg/mL (≈ 1.44 µM)
  MIC Enterococccus faecalis (GC 2691): 2 µg/mL (≈ 1.44 µM)
  MIC Enterococccus faecalis (GC 3059): 2 µg/mL (≈ 1.44 µM)
  MIC Enterococccus faecalis (GC 4552): 2 µg/mL (≈ 1.44 µM)
  MIC Enterococccus faecalis (GC 4553): 2 to 4 µg/mL
  MIC Enterococccus faecalis (GC 4554): 2 µg/mL (≈ 1.44 µM)
  MIC Enterococccus faecalis (GC 6189): 2 µg/mL (≈ 1.44 µM)
  MIC Enterococccus faecium (GC 2243): 1 to 2 µg/mL
  MIC Enterococccus faecium (GC 4556): 2 µg/mL (≈ 1.44 µM)
  MIC Enterococccus faecium (GC 4557): 0.5 to 2 µg/mL
  MIC Enterococcus faecalis (GC 2242): 1 to 2 µg/mL
[7]
  MIC Staphylococcus aureus (ATCC 29213): 1 µg/mL (≈ 0.72 µM)
  MIC Staphylococcus aureus (GC 1131): 0.5 to 1 µg/mL
  MIC Staphylococcus aureus (GC 4541): 1 µg/mL (≈ 0.72 µM)
  MIC Staphylococcus aureus (GC 4542): 1 µg/mL (≈ 0.72 µM)
  MIC Staphylococcus aureus (GC 4544): 0.5 to 2 µg/mL
  MIC Staphylococcus aureus (GC 4545): 1 to 2 µg/mL
  MIC Staphylococcus haemolyticus (GC 4546): 1 µg/mL (≈ 0.72 µM)
  MIC Coagulase Negative Staphylococcus (GC 4547): 0.5 to 1 µg/mL
  MIC Coagulase Negative Staphylococcus (GC 4548): 0.5 to 1 µg/mL
  MIC Coagulase Negative Staphylococcus (GC 4549): 0.5 to 1 µg/mL
  MIC Coagulase Negative Staphylococcus (GC 4551): 0.5 to 1 µg/mL
  MIC Coagulase Negative Staphylococcus (GC 6257): 1 µg/mL (≈ 0.72 µM)
  MIC Coagulase Negative Staphylococcus (ID-3941): 0.5 µg/mL (≈ 0.36 µM)
[7]; [10]
  MIC Staphylococcus aureus (ATCC 29213): 1 µg/mL (≈ 0.72 µM)
  MIC Staphylococcus aureus (GC 1131): 0.5 to 1 µg/mL
  MIC Staphylococcus aureus (GC 4541): 1 µg/mL (≈ 0.72 µM)
  MIC Staphylococcus aureus (GC 4542): 1 µg/mL (≈ 0.72 µM)
  MIC Staphylococcus aureus-SMITH (GC 4543): 0.5 to 1 µg/mL
  MIC Staphylococcus aureus (GC 4544): 0.5 to 2 µg/mL
  MIC Staphylococcus aureus (GC 4545): 1 to 2 µg/mL
  MIC Staphylococcus haemolyticus (GC 4546): 1 µg/mL (≈ 0.72 µM)
  MIC Coagulase Negative Staphylococcus (GC 4547): 0.5 to 1 µg/mL
  MIC Coagulase Negative Staphylococcus (GC 4548): 0.5 to 1 µg/mL
  MIC Coagulase Negative Staphylococcus (GC 4549): 0.5 to 1 µg/mL
  MIC Coagulase Negative Staphylococcus (GC 4551): 0.5 to 1 µg/mL
  MIC Coagulase Negative Staphylococcus (GC 6257): 1 µg/mL (≈ 0.72 µM)
  MIC Coagulase Negative Staphylococcus (ID-3941): 0.5 µg/mL (≈ 0.36 µM)
[7]; 18 hours at 35° C.
  MIC Staphylococcus aureus-SMITH (GC 4543): 0.5 to 1 µg/mL
[8]
  MIC Escherichia coli (ATCC 25922): 32 µg/mL (≈ 23 µM)
  MIC Escherichia coli (GC 4559): >16 µg/mL
  MIC Escherichia coli (GC 4560): 1 µg/mL (≈ 0.72 µM)
[9]
  MIC Streptococcus agalactiae (GC 4564): <0.12 µg/mL
  MIC Streptococcus pneumoniae (GC 4565): <0.12 µg/mL
  MIC Streptococcus pyogenes (GC 4563): <0.12 µg/mL
  MIC Streptococcus pyogenes (ID-3187): 0.5 µg/mL (≈ 0.36 µM)
